Patent US7348178B1, “Recombinant adenoviral vector system” (priority 1994, dated 2008)
Entries after “also recorded” stand apart in the source; their conditions may differ.

Tests used:
Assay type in all cases: cell-based, human
uninfected 293 cells = test: Drug cytotoxicity in uninfected 293 cells; conditions: 20 mM 2AP, 48 h posttreatment
[1] = test system: cytokeratin network of 293 cells infected with Ad2 ts1; test: Indirect immunofluorescence of keratin K18 network in Ad2 ts1-infected 293 cells; conditions: Ad ts1 infection at 39.5° C. plus 2AP, fixed 22 h post infection
Protocol: FIG. 6. […] 293 cells were infected with Ad2 ts1 at 4,000 particles per cell, a 25 plaque forming unit (PFU) per cell equivalent, given the high particle/PFU ratio for this mutant, in the presence or absence of 2AP at 32° C. or 39.5° C. […] Cells were fixed and processed for indirect immunofluorescence, using a keratin K18-specific antibody. Cells infected at 32° C. were fixed at 40 h post infection, cells infected at 39.5° C. were fixed at 22 h post infection. By preventing Ad viral proteolysis of keratin K18, viral induced CPE and early cell lysis can be controlled.
Cells were grown on coverslips, fixed with paraformaldehyde, and permeabilized with Triton X-100. Mouse monoclonal antibodies directed against vimentin were purchased from Boehringer Mannheim Biochemicals. A mouse monoclonal antibody specific for keratins K18 (KS-B17.2) and K1, 5 to 8, 10, 11, and 18 (no. 8.13) were from Sigma Chemical Co. Fluorescein isothiocyanate-conjugated rabbit anti-mouse antibodies were purchased from Sigma. Cells were photographed under visible or ultraviolet light using a Zeiss photomicroscope.
Experiments were performed to test whether coupled shutoff of host protein synthesis and cleavage of cytokeratins truly correlates with development of CPE. […] Cells were infected with […] at permissive (32° C.) and restrictive (39.5° C.) temperatures. […]

[2] = test system: wild type Ad-infected 293 cells; test: [35S]methionine labeling, SDS-PAGE: Ad shutoff of cell protein synthesis
Protocol: FIG. 7. […] Uninfected and wild type Ad-infected 293 cells were labeled with [^35S]methionine at 24 h post infection and duplicate plates were treated with 10 mM 2AP, added 1 to 2 h after infection. Equal amounts of protein from labeled extracts were analyzed by SDS-polyacrylamide gel electrophoresis and fluorographed. Ad late polypeptides correspond to proteins II, III, IV, V, pIV, pVIII, pVI, and IX.
Cells were labeled with [^35S]methionine for 1 to 2 h by using 50 μCi of trans[^35S]methionine (ICN) per ml in DMEM lacking methionine and supplemented with 2% calf serum. Cell extracts were prepared by sonication of washed cells in 10 mM KC1-10 mM Tris (pH 7.4)−1 mM EDTA at 4° C. and cleared of debris by centrifugation at 10,000 rpm equal amounts of protein were analyzed in sodium dodecyl sulfate (SDS)-polyacrylamide gels. Gels were fluorographed and quantitated by densitometry.
293 cells were treated with 2AP for the duration of infection, starting shortly after the addition of virus. Duplicate plates of cells were then labeled with [^35S]methionine, and extracts were analyzed by SDS-polyacrylamide gel electrophoresis (FIG. 7) or photographed at various times after infection for evidence of CPE (see FIG. 5).

[3] = test system: wild type Ad-infected 293 cells; test: Ad-induced CPE in infected 293 cells, photographed; conditions: wild type Ad 50 PFU per cell, 20 mM 2AP added 2 h post infection, 24 and 48 h
Protocol: FIG. 5. Prevention of adenovirus induced CPE and facilitated cell lysis or loss of metabolic function during expression of late viral genes. Cells were infected at 50 PFU per cell with wild type Ad, and 20 mM 2-aminopurine (2AP) was added to duplicate plates 2 h post infection for up to 48 h. Cells were photographed at 24 and 48 h. […] Late Ad polypeptides can therefore be expressed in this system for the duration of several days without facilitating cell lysis and CPE that would limit their expression.
Ad 300 is a wild type strain 5 isolate (H5wl300) originally purified by H. Ginsberg is available through the ATCC. Ad2 ts1 is described in Chen et al., 1993, J. Virol. 67:3507-3514. 293 cells are human embryonic kidney cell line that express the E1 region of Ad5 (Graham et al., 1977, J. Gen. Virol. 36:59-72). 293 and HeLa cells were cultured in Dulbecco's modified Eagle's medium (DMEM) containing 10% calf serum. Virus stocks were grown and titers were determined on 293 cells. RD (human rhabdosarcoma) cells were obtained from the American Type Culture Collection and grown in DMEM containing 15% fetal bovine serum. 2AP was prepared and used as previously described (Huang & Schneider, 1990, PNAS USA 87:7115-7119). Infections of cells with viruses were typically carried out for 1 h with 50 PFU per cell unless otherwise noted. […]

Nc1ncc2[nH]cnc2n1 [2AP, 2-aminopurine]
cytotoxicity (uninfected 293 cells): little detectable cytotoxicity
keratin network integrity [1]: remarkably well preserved
shutoff of cell protein synthesis / translation ([2]; 10 mM 2AP added 1 to 2 h after infection, labeled 24 h post infection): prevents the shutoff of translation of cellular and early Ad mRNAs; also recorded: prevent Ad shutoff of cell protein synthesis
levels of cellular polypeptide synthesis and of Ad mRNAs lacking the tripartite leader ([2]; 2AP-treated infected 293 cells): significantly elevated
Ad-induced CPE [3]: largely prevented detectable CPE; also recorded: significantly reduced cytopathic effect; also recorded: only slight CPE
